{"source": "patent US7183255B2", "about": "“Method for stabilizing blood pressure in hemodialysis subjects” (Intradialytic Pharmaceuticals, priority 2003, dated 2007)", "assay_type_in_all_cases": "in vivo, human", "key": {"[1]": {"assay": "Plasma vasopressin during constant vasopressin infusion in normal subjects and ESRD patients (Example 3, FIG. 8)", "details": "normal subjects vs patients with ESRD", "experimental": "(§1) Plasma vasopressin concentration. Vasopressin in plasma was determined as previously described (Landry, D. W., H. R. Levin, et al. (1997). Circulation 95(5): 1122–5).\n(§2) Administration of vasopressin. In eight normal subjects and eight patients with ESRD off dialysis, 8-arginine vasopressin (vasopressin, American Pharmaceutical Partners, Schaumberg, Ill.) in normal saline was administered through an antecubital intravenous line. In eight patients with ESRD during hemodialysis, vasopressin was infused through the venous (blood return) limb of the dialysis circuit throughout the dialysis session at a rate of 0.15 or 0.3 mU·kg^−1·min^−1.\nEffect of vasopressin administration on its plasma concentration in normal subjects and Patients with ESRD. Because the effect of renal failure on the clearance of plasma vasopressin has remained unresolved (Shade, R. E. and L. Share (1976). Endocrinology 99(5): 1199–206; Benmansour, M., M. Rainfray, et al. (1982). Eur J Clin Invest 12(6): 475–80; Argent, N. B., R. Wilkinson, et al. (1992). Clin Sci (Lond) 83(5): 583–7), we administered a constant infusion of hormone to normal subjects and to patients with ESRD and measured plasma levels."}, "[2]": {"assay": "Plasma AVP (radioimmunoassay) during constant AVP infusion, control vs hemodialysis periods (Example 1)", "design": "plasma concentration of AVP at 2 h: unit not given here", "details": "for plasma concentration of AVP at 2 h: ESRD patients, n=4", "experimental": "Healthy controls and patients with end-stage renal disease (e.g. defined as creatinine clearance of less than 10 ml/min) were studied. The studies were conducted on regularly scheduled hemodialysis days. The duration of hemodialysis remained the same as that prescribed prior to the study period. AVP or placebo (normal saline) was administered at a constant rate of 0.15, 0.3 or o.6 mU/kg/min through a venous line (controls) or through the venous limb of the dialysis circuit (hemodialysis patients). The patient's hemodialysis prescription remained unchanged except for the administration of AVP or placebo. Intradialytic hypotension was treated in the customary manner with the infusion of isotonic and hypertonic fluids.\nSerum AVP levels were determined by a radioimmunoassay technique. Blood pressure was measured with a cuff-type sphygmomanometer at 20 minute intervals.\nPlasma AVP is not dialyzed. To examine whether administration of exogenous AVP could prevent intradialytic hypotension, it was first determined whether the dialysis procedure removed the hormone from the blood. To determine this, AVP was administered at doses that had no effect in normal subjects and determined the plasma concentrations and pressure responses to AVP infusion in healthy control subjects and hemodialysis patients.\nTo rule out the possibility that the lack of a rise in plasma AVP during dialysis was due to the fact that the newly secreted hormone was being dialyzed as was being secreted, we measured plasma AVP during the infusion of exogenous AVP to ERDS patients during control conditions and during hemodialysis."}, "[3]": {"system": "ESRD patients during hemodialysis", "assay": "Similar study of fluid removal by hemodialysis with AVP vs placebo (FIG. 7)", "details": "five patients on AVP (FIG. 7)", "description": "FIG. 7 depicts greater fluid removal by hemodialysis with AVP."}, "[4]": {"assay": "Effect of hemodialysis on plasma vasopressin during constant vasopressin infusion (Example 3, Table 1)", "details": "for level at 1 h / level at 2 h / level at 0 h: human, plasma, iv, mean±SE; for level at 1 h: 1 h Dialysis; for level at 2 h: 2 h Dialysis; for level at 0 h: Start Dialysis", "experimental": "All patients were studied at regularly scheduled dialysis sessions. Patients underwent conventional hemodialysis with hollow fiber high flux polysulfone dialyzers on volumetric dialysis machines (Cobe Centrysystem 3, Gambro Renal Care Products, Inc., Lakewood, Colo.). Dialysis times were 3.5–4.5 hours. Blood flow was 300–400 mL/min and dialysate was delivered at 600 mL/min. The dialysis bath contained potassium, 2 mEq/L; calcium, 2.5 mEq/L; magnesium, 0.75 mEq/L; and bicarbonate, 40 mEq/L. In those patients who were prescribed dialysate sodium modeling and/or reduced dialysate temperature (35–37° C.) prior to the study, the parameters of these interventions were held constant throughout the study. Ultrafiltration was performed at a constant rate based on the target weight loss for that dialysis session. Oscillometric blood pressure and heart rate measurements were taken at 15–30 minute intervals.\nas §1, §2\nEffect of hemodialysis on plasma vasopressin concentration during constant infusion of hormone. To determine whether hemodialysis removes vasopressin from plasma (Shimamoto, K., T. Ando, et al. (1977). J Clin Endocrinol Metab 45(4): 818–20; Rosansky, S. J., R. Rhinehart, et al. (1991). Clin Nephrol 35(4): 158–64), we examined the effect of the procedure on the steady state plasma concentration of hormone during constant infusion. Vasopressin was infused for >1 hour to obtain a stable plasma concentration, at which time hemodialysis was initiated."}, "[5]": {"details": "0.15 mU/kg · min^−1, infusion 0.15 mU · kg^−1 · min^−1"}, "[6]": {"details": "0.3 mU/kg · min^−1, infusion 0.3 mU · kg^−1 · min^−1"}}}
{"smiles": "NC(=O)CC[C@@H]1NC(=O)[C@H](Cc2ccccc2)NC(=O)[C@H](Cc2ccc(O)cc2)NC(=O)[C@@H](N)CSSC[C@@H](C(=O)N2CCC[C@H]2C(=O)N[C@@H](CCCN=C(N)N)C(=O)NCC(N)=O)NC(=O)[C@H](CC(N)=O)NC1=O", "note": "[AVP, 8-arginine vasopressin]", "values": [{"measurement": "effect of renal failure on clearance of plasma vasopressin", "setting": "[1]", "result": "does not alter the clearance"}, {"measurement": "clearance of the hormone from the blood by hemodialysis", "setting": "[2]; HD instituted during constant AVP infusion", "result": "does not clear the hormone from the blood"}, {"measurement": "plasma concentration of AVP at 2 h", "setting": "[2]; constant infusion dose 0.15, control period", "result": 25.7}, {"measurement": "plasma concentration of AVP at 2 h", "setting": "[2]; constant infusion dose 0.15, hemodialysis period", "result": 28.9}, {"measurement": "plasma concentration of AVP at 2 h", "setting": "[2]; constant infusion dose 0.3, control period", "result": 47.4}, {"measurement": "plasma concentration of AVP at 2 h", "setting": "[2]; constant infusion dose 0.3, hemodialysis period", "result": 51.2}, {"measurement": "plasma concentration of AVP at 2 h", "setting": "[2]; constant infusion dose 0.6, control period", "result": 100.0}, {"measurement": "plasma concentration of AVP at 2 h", "setting": "[2]; constant infusion dose 0.6, hemodialysis period", "result": 104.6}, {"measurement": "plasma level of AVP", "setting": "[2]; infusion of 0.3 mU/kg/min, hemodialysis patients and control subjects", "result": "~40", "unit": "pg/m"}, {"measurement": "blood pressure stability and extra fluid removal", "setting": "[3]", "result": "the blood pressure was stable and extra fluid removal was possible"}, {"measurement": "level at 1 h", "setting": "[4]; [5]", "result": "0.025 ± 0.006", "unit": "ng/mL"}, {"measurement": "level at 2 h", "setting": "[4]; [5]", "result": "0.029 ± 0.006", "unit": "ng/mL"}, {"measurement": "level at 0 h", "setting": "[4]; [5]", "result": "0.026 ± 0.004", "unit": "ng/mL"}, {"measurement": "level at 1 h", "setting": "[4]; [6]", "result": "0.054 ± 0.006", "unit": "ng/mL"}, {"measurement": "level at 2 h", "setting": "[4]; [6]", "result": "0.052 ± 0.009", "unit": "ng/mL"}, {"measurement": "level at 0 h", "setting": "[4]; [6]", "result": "0.047 ± 0.006", "unit": "ng/mL"}, {"measurement": "change of plasma concentrations of vasopressin by hemodialysis", "setting": "[4]; steady state during constant infusion, hemodialysis initiated after >1 hour", "result": "not significantly changed"}]}
